According to paper PMC5589090 (PLoS Medicine, 2017):
Where two headings read alike, the source gives them in different places.

Legend:
testicular cancer = system: testicular cancer; parameters: method as in ref 92 (a number printed in a supplementary file, which may have a reference list of its own: not looked up in the article's list); settings: 20% incidence in controls; cited from earlier work
[1] = parameters: method as in ref 16 (a number printed in a supplementary file, which may have a reference list of its own: not looked up in the article's list); settings: decitabine 0.1-0.2mg/kg 1-2X/week, four SCD patients; cited from earlier work
E. Coli lac I transgene = settings: ref 76 77; cited from earlier work
THP1 = settings: 0.3 µM daily for 2-3 days; cited from earlier work
[2] = cited from earlier work
DNMT1 [3] = target: T1, DNMT1 (Homo sapiens, UniProt P26358); assay: DNMT1 protein measurement by flow cytometry of peripheral blood mononuclear cells; type: in vivo
T1 construct: DNMT1 protein levels were measured by flow cytometric analysis of peripheral blood mononuclear cells; endogenous in cells; host or cells: peripheral blood mononuclear cells of sickle cell disease patients (ex vivo, after in vivo dosing)
T1 sequence (P26358 whole entry): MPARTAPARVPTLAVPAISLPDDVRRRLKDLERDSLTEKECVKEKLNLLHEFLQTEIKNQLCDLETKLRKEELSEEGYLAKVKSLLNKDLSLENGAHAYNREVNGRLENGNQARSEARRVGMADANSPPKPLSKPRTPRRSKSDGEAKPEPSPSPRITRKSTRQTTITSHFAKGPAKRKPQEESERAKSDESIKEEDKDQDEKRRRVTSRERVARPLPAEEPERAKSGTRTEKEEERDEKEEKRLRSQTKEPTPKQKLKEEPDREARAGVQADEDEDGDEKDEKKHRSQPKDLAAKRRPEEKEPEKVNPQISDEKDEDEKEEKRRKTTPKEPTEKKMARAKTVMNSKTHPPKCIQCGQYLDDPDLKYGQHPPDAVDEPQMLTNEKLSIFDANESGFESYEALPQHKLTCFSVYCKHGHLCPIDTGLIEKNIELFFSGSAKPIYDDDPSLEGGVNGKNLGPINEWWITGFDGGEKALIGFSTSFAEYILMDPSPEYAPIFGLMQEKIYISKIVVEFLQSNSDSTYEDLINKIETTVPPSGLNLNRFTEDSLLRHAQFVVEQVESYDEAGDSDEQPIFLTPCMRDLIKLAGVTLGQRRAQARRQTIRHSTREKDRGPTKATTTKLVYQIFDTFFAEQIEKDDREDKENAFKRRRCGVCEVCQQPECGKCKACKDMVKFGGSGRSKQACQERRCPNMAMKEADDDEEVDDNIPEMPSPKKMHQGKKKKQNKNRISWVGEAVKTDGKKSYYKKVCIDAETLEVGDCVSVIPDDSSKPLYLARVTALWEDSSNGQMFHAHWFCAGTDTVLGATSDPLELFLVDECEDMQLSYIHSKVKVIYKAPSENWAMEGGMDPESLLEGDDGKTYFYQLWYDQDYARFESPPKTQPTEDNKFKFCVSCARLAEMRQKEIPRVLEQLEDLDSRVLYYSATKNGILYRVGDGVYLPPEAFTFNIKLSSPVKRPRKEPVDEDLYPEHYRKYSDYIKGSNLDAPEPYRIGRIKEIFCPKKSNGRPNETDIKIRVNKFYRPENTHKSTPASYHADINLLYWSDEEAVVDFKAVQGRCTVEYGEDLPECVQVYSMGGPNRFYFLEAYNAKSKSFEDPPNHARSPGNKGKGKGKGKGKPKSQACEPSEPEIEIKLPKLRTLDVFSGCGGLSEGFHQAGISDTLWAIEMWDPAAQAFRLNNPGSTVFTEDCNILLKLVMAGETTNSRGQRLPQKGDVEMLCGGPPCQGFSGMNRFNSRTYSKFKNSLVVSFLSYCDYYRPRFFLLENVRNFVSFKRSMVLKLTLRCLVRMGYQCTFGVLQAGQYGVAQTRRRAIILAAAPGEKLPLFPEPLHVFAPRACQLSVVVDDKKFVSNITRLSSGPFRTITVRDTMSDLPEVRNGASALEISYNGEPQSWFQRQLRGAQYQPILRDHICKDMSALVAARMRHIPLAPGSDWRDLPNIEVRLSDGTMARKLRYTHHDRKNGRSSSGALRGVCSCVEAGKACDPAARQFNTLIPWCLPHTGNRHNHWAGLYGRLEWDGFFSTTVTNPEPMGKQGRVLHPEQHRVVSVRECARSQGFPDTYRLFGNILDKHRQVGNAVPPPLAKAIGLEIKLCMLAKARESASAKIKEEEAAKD
Description: Phlebotomized whole blood was layered over Histopaque. The interface was collected and washed with phosphate-buffered saline (PBS). Cell suspensions of approximately 200,000 cells were fixed with 4% paraformaldehyde for 30 minutes on ice. Cells were spun down, washed in PBS, and suspended in 70% ethanol and stored at −20°C for subsequent batched analyses. […] All procedures were performed on ice and all centrifugations were done at 400 g for 5 minutes at 4°C. The pellet was hydrated overnight in 1 ml sterile, distilled water to partially reverse the alcohol fixation. After incubation, samples were centrifuged and then resuspended in 1 ml PBS/2% bovine serum albumin (BSA) and incubated for 30 minutes to block nonspecific antibody binding. Following centrifugation, unlabeled anti-DNMT1 antibody [EPR 3522] […] Samples were washed 3 times: each wash was a 10-minute incubation with 1 ml PBS/2% BSA followed by centrifugation. After the third wash, CD64-Alexa Fluor 488 (5 μl/test; BioLegend; catalog no. 305010), Cyclin A2-PE (4μl/test; Beckman Coulter; catalog no. B15092), CD33-APC/Cy7 (5 μl/test; BioLegend; catalog no. 366614), and F(ab′)2-goat anti-rabbit IgG (H+L) Alexa Fluor 647 (0.0938 μg/test; Life Technologies; catalog no. A21246) were added in a final volume of 100 μl and incubated for 1 hour. After the incubation and without washing, 3.5 ml PBS containing 0.5 μg/ml DAPI was added to each sample. All samples were analyzed on an Attune NxT Acoustic Focusing Cytometer (Life Technologies) at a flow rate of 500 μl per minute. Compensation was performed with CompBeads Set Anti-Mouse Ig, κ (BD Biosciences; catalog no. 552843) and Flow Cytometry Protein G Antibody Binding Beads (Bangs Laboratories, Inc.; catalog no. 554/11863).
Data were normalized to the instrument using 8-peak SPHERO Rainbow Calibration Particles (Spherotech; catalog no. RCP-30-5A). WinList 3D v8.0 (Verity Software House) was used for post-acquisition analysis. Doublet discrimination was performed using the DAPI area and peak signals. […]

DNMT1 [4] = settings: cited from earlier work
[5] = cited from earlier work; remark: listed apart in the source
cancers = system: cancers; parameters: method as in ref 94 (a number printed in a supplementary file, which may have a reference list of its own: not looked up in the article's list); settings: cited from earlier work
[6] = system: Friend erythroleukemia cells; parameters: method as in ref 48 (a number printed in a supplementary file, which may have a reference list of its own: not looked up in the article's list); settings: single exposure 0.4 µM; cited from earlier work
[7] = cited from earlier work; for Cmax: read-out: decitabine Cmax
KG1a = settings: cited from earlier work
[8] = system: 10T1/2 cells and V79 cells; parameters: method as in ref 74 (a number printed in a supplementary file, which may have a reference list of its own: not looked up in the article's list); settings: cited from earlier work
thyroid carcinoma = system: thyroid carcinoma; parameters: method as in ref 95 (a number printed in a supplementary file, which may have a reference list of its own: not looked up in the article's list); settings: cited from earlier work
[9] = Blood counts, clinical pathology (total hemoglobin, reticulocytes, platelets, ANC, ALC, WBC); type: in vivo, human; settings: cohorts 4 and 5, while total hemoglobin increased
From the text: Blood counts, blood chemistries, total bilirubin, HbF, LDH, and D-dimer levels were standard clinical pathology tests through the CLIA-certified Clinical Pathology Laboratory at the University of Illinois at Chicago.

[10] = cited from earlier work; remark: listed apart in the source
[11] = read-out: decitabine Cmax; 15 mg/m^2 IV over 3 hours Q8 hrs D1-3 or 20 mg/m^2 IV over 1 hour D1-5; ref 105;108;109; cited from earlier work
HbF = HbF levels by HPLC; type: in vivo, human
From the text: Blood counts, blood chemistries, total bilirubin, HbF, LDH, and D-dimer levels were standard clinical pathology tests through the CLIA-certified Clinical Pathology Laboratory at the University of Illinois at Chicago. […] For quantification of F-cells by flow cytometry, peripheral blood samples were fixed and stained with phycoerythrin-conjugated anti-HbF (Caltag) per manufacturer’s instructions. A normal adult negative control and cord blood positive control were run with each Becton-Dickinson FacsCalibur (Sunnyvale, CA) analysis.

[12] = system: multiple intestinal adenomas; parameters: method as in ref 90 (a number printed in a supplementary file, which may have a reference list of its own: not looked up in the article's list); settings: cited from earlier work
[13] = human, po, 0.01 mg/kg
Description: To ensure safety in case of this possibility, decitabine pharmacokinetics are measured after single dose oral administration of decitabine and THU.

[14] = cited from earlier work; remark: listed apart in the source
[15] = system: L5178Y mouse lymphoma cells; parameters: method as in ref 75 (a number printed in a supplementary file, which may have a reference list of its own: not looked up in the article's list); settings: cited from earlier work
[16] = Adverse events (CTCAE v 4.0), phase 1 trial NCT01685515 in SCD adults; settings: cohorts 1-5
From the text: The primary endpoint was ≥ grade 3 non-hematologic toxicity.
For statistical comparisons of adverse events (AEs) between placebo and each dose group, we performed exact tests of the null hypothesis that the rate parameters of Poisson distributed AEs are equal. Relative risks are given as the ratio of such rate parameters. Thus, differences are insignificant if relative risks confidence intervals include 1. The R function poisson.test(), an exact test, was used. Pain, the most frequent AE, was analyzed similarly.

Q: With `Nc1ncn([C@H]2C[C@H](O)[C@@H](CO)O2)c(=O)n1` [decitabine, 5-aza-2’-deoxycytidine] as the compound, how does the testicular cancer occurrence (testicular cancer) read?
A: 0%

Q: And the “Hemoglobin increases within 2-4 weeks” value [1]?
A: > 1.5 g/dL

Q: And the maximum hemoglobin increases [1]?
A: 3.5 to 5 g/dL

Q: And the transgene mutations (E. Coli lac I transgene)?
A: mutations predominantly at CpG nucleotides

Q: And the DNMT1 protein expression (THP1)?
A: profoundly decreased DNMT1 protein expression

Q: And the “phosphorylation of H2AX” value (THP1)?
A: did not increase phosphorylation of H2AX

Q: And the viability (THP1)?
A: did not decrease the viability

Q: What about the “plasma t ½” value ([2]; Fig 1C, decitabine alone) of the same compound?
A: < 15 min

Q: And the “decitabine half-life in vivo” value ([2]; abbreviated by CDA, ref 27;28)?
A: < 20 min

Q: And the oral bioavailability ([2]; decitabine alone)?
A: negligible

Q: What about the plasma half-life ([2]; decitabine alone) of the same compound?
A: only minutes

Q: What about the Cmax ([2]; read-out: Cmax that correlates with nucleotide pool imbalance, DNA-damage, and cytotoxicity) of the same compound?
A: > 500 nM

Q: What about the “DNMT1 protein decrease from baseline in PBMC” value (from here on “DNMT1 protein decrease”) (DNMT1 [3]; decitabine 0.08 mg/kg (cohort 4) after THU 10 mg/kg 2X/week, all patients) of the same compound?
A: approximately 50%

Q: And the “DNMT1 protein decrease” value (DNMT1 [3]; decitabine […] (cohort 5) after THU 10 mg/kg 2X/week, 2 of the 3 patients)?
A: > 75%

Q: And the “DNMT1 protein decrease” value (DNMT1 [3]; lower decitabine doses (cohorts 1-3))?
A: not in patients with lower decitabine doses

Q: And the “concentrations that deplete DNMT1 without measurable DNA damage or cytotoxicity” value (DNMT1 [4]; in vitro)?
A: 200 to 500 nM

Q: And the “threshold concentration for depleting DNMT1” value (DNMT1 [4]; ref 15;17-22;48)?
A: ~ 0.005 µM

Q: What about the half-life in vitro (DNMT1 [4]; ref 27;101) of the same compound?
A: 300 to 960 min

Q: What about the fetal defects ([5]; pregnant mice, dose and gestation day related) of the same compound?
A: increased fetal defects

Q: And the “fertility in off-spring after in utero exposure” value ([5]; primarily in males)?
A: decreased fertility in off-spring

Q: And the “decrease of the incidence of cancers” value (cancers)?
A: 30%

Q: And the DNA methylation [6]?
A: decreased DNA methylation

Q: And the viability [6]?
A: did not decrease viability

Q: And the lethal toxicity ([7]; decitabine 1.0 mg/kg + THU 167 mg/kg 2X/week for 9 weeks, ref Investigators Brochure)?
A: lethal toxicity in eight females and one male

Q: What about the “toxicity in bone marrow, lymphoid and testicular tissue” value ([7]; decitabine 0.2 and 0.4 mg/kg + THU, ref Investigators Brochure) of the same compound?
A: reversible toxicity

Q: What about the Cmax ([7]; low dose 0.2 mg/kg + THU 167 mg/kg oral gavage 2X/week, ref Investigators Brochure) of the same compound?
A: 1500 nM

Q: And the Cmax ([7]; mid dose 0.4 mg/kg + THU 167 mg/kg oral gavage 2X/week, ref Investigators Brochure)?
A: 2900 nM

Q: And the Cmax ([7]; mouse, in vivo)?
A: 8600 nM

Q: And the NOAEL ([7]; ref Investigators Brochure)?
A: no NOAEL

Q: What about the “decrease of decitabine Cmax and AUC cal,0→180 on day 58 compared to day 1” value ([7]; ref Investigators Brochure) of the same compound?
A: ~ 30%

Q: What about the DNMT1 protein expression (KG1a; 0.3 µM daily for 2-3 days) of the same compound?
A: profoundly decreased DNMT1 protein expression

Q: And the viability (KG1a; 0.3 µM daily for 2-3 days)?
A: did not decrease the viability

Q: And the phospho-H2AX (KG1a; 0.3 µM, 3 days of treatment)?
A: an increase in phospho-H2AX was noted

Q: What about the mutagenicity [8] of the same compound?
A: either did not show mutagenicity or was weakly mutagenic

Q: And the thyroid carcinoma promotion (thyroid carcinoma)?
A: promoted goitrogen induced, but not radiation induced, thyroid carcinoma

Q: And the reticulocyte counts [9]?
A: decreased

Q: And the “clinical adverse events attributed to decitabine” value ([10]; 13 SCD and 5 β-thalassemia intermedia patients, SC decitabine 12-36 weeks)?
A: no clinical adverse events attributed to decitabine

Q: What about the “platelet count increases to” value ([10]; SCD study of decitabine) of the same compound?
A: > 8e+11 L⁻¹

Q: What about the “HbF increase from baseline” value ([10]; parenteral decitabine 2–3X/week, plateau after 12 weeks, SCD patients without HbF response to hydroxyurea) of the same compound?
A: > 10%

Q: What about the “platelet count increases to” value ([10]; sickle cell study, subcutaneous decitabine) of the same compound?
A: ~ 1000 x 10^9/L

Q: And the Cmax [11]?
A: ≤ 2700 nM

Q: What about the “HbF% increases by HPLC” value (HbF; decitabine 0.08 mg/kg and […] (cohorts 4 and 5)) of the same compound?
A: increases by HPLC were observed

Q: And the “HbF% increases by HPLC” value (HbF; other decitabine dose levels (cohorts 1-3))?
A: not with other decitabine dose levels

Q: And the tumor development [12]?
A: do not develop tumors

Q: And the Cmax [13]?
A: ≤ 0.74 nM

Q: And the stability in plasma ([14]; hydrolysis and cytidine deaminase)?
A: very unstable in plasma

Q: And the “hydrolysis in aqueous solution every 7 hours” value ([14]; pH 7.4, 4 °C)?
A: approximately 2.5%

Q: And the “mutations as measured by 6TG resistance” value [15]?
A: did not produce mutations

Q: What about the “mutations as measured by tri-fluorothymidine resistance” value ([15]; thymidine kinase locus) of the same compound?
A: did induce mutations

Q: And the “grade 4 AEs” value [16]?
A: no grade 4 AEs
